Several values for one entry are separate records, joined by “and”; a condition that tells them apart may be missing. Identical values can stand only once. Toxic doses and inconclusive results are not listed.

This note sets out measurements from PubChem BioAssay AID330 (DTP/NCI, 2004).

This test deals with P388 leukemia ip, CD2F1 mice, survival T/C. As to the kind of experiment: NCI In Vivo Anticancer Drug Screen. Data for tumor model P388 Leukemia (intraperitoneal) in CD2F1 (CDF1) mice. The conditions noted are these: endpoint: median survival time, higher = longer survival. The procedure, abridged:
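Mice carrying the transplanted tumor received test compound or vehicle. Survival was recorded in each group, and the value is the treated-group measurement divided by that of the vehicle-treated control group.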

Setting [1] is: dose: 60.0 mg/kg/injection, schedule: Q01DX005 (ip), vehicle: saline with Tween-80.
[2] abbreviates: dose: 120.0 mg/kg/injection, schedule: Q01DX005 (ip), vehicle: saline with Tween-80.
The mark [3] stands for this setting: dose: 240.0 mg/kg/injection, schedule: Q01DX005 (ip), vehicle: saline with Tween-80.
Setting [4] is: dose: 100.0 mg/kg/injection, schedule: Q01DX009 (ip), vehicle: saline with Tween-80.
Where [5] appears, read: dose: 200.0 mg/kg/injection, schedule: Q01DX009 (ip), vehicle: saline with Tween-80.
Where [6] appears, read: dose: 12.5 mg/kg/injection, schedule: Q01DX009 (ip), vehicle: saline with Tween-80.
Setting [7] is: dose: 25.0 mg/kg/injection, schedule: Q01DX009 (ip), vehicle: saline with Tween-80.
The mark [8] stands for this setting: dose: 50.0 mg/kg/injection, schedule: Q01DX009 (ip), vehicle: saline with Tween-80.
Where [9] appears, read: dose: 12.5 mg/kg/injection, schedule: Q01DX009 (ip), vehicle: Klucel (hydroxypropylcellulose) (HPC).
[10] abbreviates: dose: 25.0 mg/kg/injection, schedule: Q01DX009 (ip), vehicle: Klucel (hydroxypropylcellulose) (HPC).
Where [11] appears, read: dose: 50.0 mg/kg/injection, schedule: Q01DX009 (ip), vehicle: Klucel (hydroxypropylcellulose) (HPC).
The mark [12] stands for this setting: dose: 100.0 mg/kg/injection, schedule: Q01DX009 (ip), vehicle: Klucel (hydroxypropylcellulose) (HPC).

With `O=c1c(CO)c(-c2ccccc2)sc2ccccc12`, the T/C reads like this: (dose: 60.0 mg/kg/injection, schedule: Q01DX005 (ip), vehicle: Klucel (hydroxypropylcellulose) (HPC)) 96 % of control; (dose: 120.0 mg/kg/injection, schedule: Q01DX005 (ip), vehicle: Klucel (hydroxypropylcellulose) (HPC)) 97 % of control; (dose: 240.0 mg/kg/injection, schedule: Q01DX005 (ip), vehicle: Klucel (hydroxypropylcellulose) (HPC)) 95 % of control.

As to `COC(=O)N1C=CC2ON=C(OC)C2C1` (centres undefined), the T/C under setting [1] was 95 % of control, the T/C under setting [2] was 100 % of control and the T/C under setting [3] was 94 % of control.

As for `CN(Cc1cnc2nc(N)nc(N)c2n1)c1ccc(C(=O)NC(CCC(=O)OC(C)(C)C)C(=O)O)cc1` (centres undefined), the T/C by setting is: (dose: 5.0 mg/kg/injection, schedule: Q03HX024 (ip), vehicle: sodium bicarbonate) 156 % of control; (dose: 10.0 mg/kg/injection, schedule: Q03HX024 (ip), vehicle: sodium bicarbonate) 182 % of control; (dose: 20.0 mg/kg/injection, schedule: Q03HX024 (ip), vehicle: sodium bicarbonate) 230 % of control; (dose: 20.0 mg/kg/injection, schedule: Q04DX003 (ip), vehicle: sodium bicarbonate) 122 % of control; (dose: 40.0 mg/kg/injection, schedule: Q03HX024 (ip), vehicle: sodium bicarbonate) 269 % of control; (dose: 80.0 mg/kg/injection, schedule: Q03HX024 (ip), vehicle: sodium bicarbonate) 153 % of control.

For the compound `O=C(O)c1cc(Nc2ccnc3cc(Cl)ccc23)ccc1O`, the T/C is 98 % of control (dose: 100.0 mg/kg/injection, schedule: Q04DX002 (ip), vehicle: saline with Tween-80); 97 % of control (dose: 200.0 mg/kg/injection, schedule: Q04DX002 (ip), vehicle: saline with Tween-80); 98 % of control (dose: 400.0 mg/kg/injection, schedule: Q04DX002 (ip), vehicle: saline with Tween-80).

As to `Cc1cc(Br)ccc1N`, the T/C by setting is: under setting [4], 110 % of control; under setting [5], 110 % of control; (dose: 400.0 mg/kg/injection, schedule: Q01DX009 (ip), vehicle: saline with Tween-80) 105 % of control.

Turning to `c1c(-c2cc(C3CC3)[nH]n2)n[nH]c1C1CC1`, the T/C is 101 % of control (dose: 60.0 mg/kg/injection, schedule: Q01DX005 (ip), vehicle: saline); 97 % of control (dose: 120.0 mg/kg/injection, schedule: Q01DX005 (ip), vehicle: saline); 100 % of control (dose: 240.0 mg/kg/injection, schedule: Q01DX005 (ip), vehicle: saline).

Take `CCN(CC)S(=O)(=O)C(=[N+]=[N-])P(=O)(OC)OC`: the T/C runs as follows: (dose: 100.0 mg/kg/injection, schedule: Q04DX002 (ip), vehicle: saline) 100 % of control; (dose: 200.0 mg/kg/injection, schedule: Q04DX002 (ip), vehicle: saline) 112 % of control; (dose: 400.0 mg/kg/injection, schedule: Q04DX002 (ip), vehicle: saline) 100 % of control.

Take `CC1(C)CC([P+](c2ccccc2)(c2ccccc2)c2ccccc2)=NN1`: the T/C (dose: 0.78 mg/kg/injection, schedule: Q01DX009 (ip), vehicle: saline with Tween-80) was 115 % of control and 119 % of control; the T/C (dose: 12.5 mg/kg/injection, schedule: Q01DX001 (ip), vehicle: saline) is 123 % of control; the T/C under setting [6] was 100 % of control; the T/C (dose: 25.0 mg/kg/injection, schedule: Q01DX001 (ip), vehicle: saline) was 122 % of control.

For `CCOP(=O)(O)SP(=O)(O)OCC.CCOP(=O)(O)SP(=O)(O)OCC.[Co]`, the T/C (dose: 50.0 mg/kg/injection, schedule: Q01DX001 (ip), vehicle: saline) was 105 % of control; the T/C (dose: 100.0 mg/kg/injection, schedule: Q01DX001 (ip), vehicle: saline) is 104 % of control and 111 % of control.

Take `CCCCCC1(C2CCCCO2)NC(=O)NC1=O` (centres undefined): the T/C (dose: 50.0 mg/kg/injection, schedule: Q01DX005 (ip), vehicle: saline with Tween-80) is 97 % of control; the T/C (dose: 100.0 mg/kg/injection, schedule: Q01DX005 (ip), vehicle: saline with Tween-80) is 99 % of control; the T/C (dose: 200.0 mg/kg/injection, schedule: Q01DX005 (ip), vehicle: saline with Tween-80) is 91 % of control.

`CC(O)C(c1ccccc1)S(C)(=O)=O` (centres undefined): the T/C runs as follows: under setting [7], 101 % of control; under setting [8], 110 % of control; under setting [4], 116 % of control; under setting [5], 113 % of control.

For the compound `C[N+](C)(C)CCCCCCN`, the T/C reads like this: (dose: 50.0 mg/kg/injection, schedule: Q01DX009 (ip), vehicle: saline) 102 % of control; (dose: 100.0 mg/kg/injection, schedule: Q01DX009 (ip), vehicle: saline) 97 % of control.

Consider `C=C1C(=O)OC2/C=C(\C)CC/C=C(\C)C(OC(=O)C3(C)OC3C)C(O)C12` (centres undefined), for which the T/C is 96 % of control under setting [9], 100 % of control under setting [10], 115 % of control under setting [11] and 103 % of control under setting [12].

Turning to `CC(=O)N/C(=C\c1ccc(Cl)cc1)C(=O)c1ccc(C)cc1`, the T/C by setting is: (dose: 50.0 mg/kg/injection, schedule: Q01DX001 (ip), vehicle: saline with Tween-80) 99 % of control; (dose: 100.0 mg/kg/injection, schedule: Q01DX001 (ip), vehicle: saline with Tween-80) 97 % of control; (dose: 200.0 mg/kg/injection, schedule: Q01DX001 (ip), vehicle: saline with Tween-80) 97 % of control.

Turning to `ClCc1ccccc1CCl`, the T/C was 106 % of control (dose: 5.0 mg/kg/injection, schedule: Q04DX003 (ip), vehicle: saline with Tween-80); 94 % of control (dose: 10.0 mg/kg/injection, schedule: Q04DX003 (ip), vehicle: saline with Tween-80); 100 % of control (dose: 20.0 mg/kg/injection, schedule: Q04DX003 (ip), vehicle: saline with Tween-80); 117 % of control (dose: 40.0 mg/kg/injection, schedule: Q04DX003 (ip), vehicle: saline with Tween-80).

As to `NC(Cc1ccccc1)=S=O`, the T/C was 97 % of control (dose: 100.0 mg/kg/injection, schedule: Q04DX002 (ip), vehicle: Klucel (hydroxypropylcellulose) (HPC)) and 95 % of control (dose: 200.0 mg/kg/injection, schedule: Q04DX002 (ip), vehicle: Klucel (hydroxypropylcellulose) (HPC)).

As for `C[N+]1(C2CCCCC2c2cccc(O)c2)CCCC1` (centres undefined), the T/C was 98 % of control (dose: 0.39 mg/kg/injection, schedule: Q01DX009 (ip), vehicle: saline); 104 % of control (dose: 0.79 mg/kg/injection, schedule: Q01DX009 (ip), vehicle: saline); 98 % of control (dose: 1.56 mg/kg/injection, schedule: Q01DX009 (ip), vehicle: saline).

Turning to `CCCCOc1ccc(Nc2c3ccccc3nc3ccccc23)cc1`, the T/C under setting [6] was 98 % of control and 91 % of control; the T/C under setting [7] is 98 % of control and 106 % of control; the T/C under setting [8] is 121 % of control.

Take `O=c1c(N=Nc2ccccc2)c(O)n(-c2ccccc2Cl)c(=S)n1-c1ccccc1`: the T/C runs as follows: (dose: 25.0 mg/kg/injection, schedule: Q01DX001 (ip), vehicle: Klucel (hydroxypropylcellulose) (HPC)) 97 % of control; (dose: 50.0 mg/kg/injection, schedule: Q01DX001 (ip), vehicle: Klucel (hydroxypropylcellulose) (HPC)) 104 % of control; (dose: 100.0 mg/kg/injection, schedule: Q01DX001 (ip), vehicle: Klucel (hydroxypropylcellulose) (HPC)) 92 % of control.

Take `COC(=O)/C=C/c1c[nH]c2nccnc12`: the T/C under setting [9] was 98 % of control; the T/C under setting [10] is 100 % of control; the T/C under setting [11] is 102 % of control; the T/C under setting [12] was 100 % of control; the T/C (dose: 200.0 mg/kg/injection, schedule: Q01DX009 (ip), vehicle: Klucel (hydroxypropylcellulose) (HPC)) was 98 % of control.

`CSC(=S)n1nc(-c2cccs2)c(N=Nc2ccc(Cl)cc2)c1C(F)(F)F`: the T/C is, setting by setting: under setting [1], 92 % of control; under setting [2], 100 % of control; under setting [3], 111 % of control.
